Target: T1, 14-3-3ζ (Homo sapiens, UniProt P63104)
T1 construct: made in house
T1 sequence (P63104 1-245): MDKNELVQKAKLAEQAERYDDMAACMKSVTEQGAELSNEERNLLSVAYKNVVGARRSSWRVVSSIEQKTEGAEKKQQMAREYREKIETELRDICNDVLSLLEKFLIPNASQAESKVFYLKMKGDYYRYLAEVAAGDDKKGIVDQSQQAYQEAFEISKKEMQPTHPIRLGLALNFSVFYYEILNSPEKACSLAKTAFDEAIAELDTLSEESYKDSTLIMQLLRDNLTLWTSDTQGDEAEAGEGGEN
Assay: 14-3-3 phosphorylation by PKA catalytic subunit (autoradiography)
Assay type: biochemical
Details: TMA compounds at 125 μM or 62.5 μM in 0.1% ethanol; P81 scintillation counting or autoradiography

Compound	14-3-3 phosphorylation by PKA catalytic subunit
CCCCCCCCCCCCCC[N+](C)(C)C [C14]	capable of facilitating 14-3-3 phosphorylation
CCCCCCCCCCCCCCCC[N+](C)(C)C.[Br-] [C16, hexadecyl-trimethyl ammonium]	capable of facilitating 14-3-3 phosphorylation

Target: T1, 14-3-3ζ
Assay: as above
Assay type: biochemical
Details: 50 μM lipid delivered in 0.1% ethanol
Method: 14-3-3ζ (wild-type or S58A mutant) was incubated with the catalytic subunit of PKA in the presence (+) or absence (−) of 50 μM sphingosine (A) or DMS (B) delivered in 0.1% ethanol. Phosphorylated 14-3-3ζ was detected by autoradiography.
The assay was carried out by incubating 14-3-g (0.5 μg) with catalytic subunit of PKA (0.2 Units) with the indicated concentration of DMS delivered in 0.1% ethanol. Reactions were separated on SDS-PAGE and phosphorylated protein detected by autoradiography. […] (B) 14-3-3ζ was incubated with the catalytic subunit of PKA and 50 μM D-erythro-sphingosine (Sph), D-erythro-trimethyl-sphingosine (TMS), D-erythro-dihydro-sphingosine (DHS), phyto-sphingosine (PSph), D-erythro-sphingosine-1-phosphate (SIP), C2-ceramide (C2-Cer), sphingomyelin (SM), spermine (Sper) or linoleic acid (LA), all delivered in 0.1% ethanol. Phosphorylated 14-3-3ζ was detected by autoradiography.
Substrate 14-3-3 (either 0.5 μg of purified recombinant 14-3-3, a […] of fractions from gel filtration or immunoprecipitates from 14-3-3ζ-Myc transfected COS cells) were added to reaction mixture comprising 0.2 Units of the PKA catalytic subunit, in the presences or absence of sphingolipid (delivered in 0.1% v/v ethanol) in PICA reaction buffer (20 mM MOPS, pH 7.4, 20 mM β-glycerol phosphate, 4 mM EGTA, 1 mM Na3VO4, 60 mM MgCl2, 1 mM DTT, 500 μM ATP, 2.4 μCi [^32P]γ-ATP). Reactions were incubated at 37° C. for 15 minutes. After incubation, reactions were separated on 12.5% SDS-PAGE, coomassie stained and 14-3-3 phosphorylation analysed by autoradiography.

Compound	phosphorylation of 14-3-3ζ on Ser58 by PKA catalytic subunit
CCCCCCCCCCCCC/C=C/[C@@H](O)[C@@H](N)COP(=O)(O)O [sphingosine-1-phosphate, D-erythro-sphingosine-1-phosphate]	did not support the phosphorylation
CCCCCCCCCCCCC/C=C/[C@@H](O)[C@H](CO)[N+](C)(C)C [trimethyl-sphingosine, D-erythro-trimethyl-sphingosine]	allowed phosphorylation
CCCCCCCCCCCCC/C=C/[C@@H](O)[C@H](COP(=O)([O-])OCC[N+](C)(C)C)NC(=O)CCCCCCCCCCCCCCCCC [sphingomyelin]	did not support the phosphorylation

Now from value to compound:

phosphorylation of 14-3-3ζ on Ser58 by PKA catalytic subunit	Compound
allowed phosphorylation	CCCCCCCCCCCCCC[C@@H](O)[C@@H](O)[C@@H](N)CO [phyto-sphingosine]
allowed phosphorylation	CCCCCCCCCCCCCCC[C@@H](O)[C@@H](N)CO [dihydro-sphingosine, D-erythro-dihydro-sphingosine]
did not support the phosphorylation	NCCCNCCCCNCCCN [spermide, spermine]
did not support the phosphorylation	CCCCC/C=C\C/C=C\CCCCCCCC(=O)O [linoleic acid]
did not support the phosphorylation	CCCCCCCCCCCCC/C=C/[C@@H](O)[C@H](CO)NC(C)=O [ceramide, C2-ceramide]

System: Jurkat cells
Assay: Jurkat cell apoptosis (TMRE staining, NucView caspase activity)
Assay type: cell-based
Details: TMAs, 16 hours incubation
Source text: (A) Immunoblotting of lysates from either parental Jurkat cells (Jurkat) or cells transduced with lentivirus encoding either wild type (Wt) or S58A 14-3-3ζ-Myc with either an anti-14-3-3ζ specific antibody (upper panel) or an anti-pan 14-3-3 antibody (middle panel) to compare the expression level of transduced protein. Myc immunoprecipitates were also immunoblotted with an anti-phospho 14-3-3 binding site antibody (lower panel) to detect proteins associated with 14-3-3ζ-Myc. Endogenous 14-3-3 is indicated by an open arrow and exogenous 14-3-3ζ-Myc with a closed arrow. (B) Lysates from either wild type (Wt) or S58A 14-3-3ζ-Myc expressing Jutkat cells were subjected to in vitro PKA phosphorylation in the presence (+) or absence (−) of […] and the samples immunoblotted after SDS-PAGE separation With either anti-Myc antibody (upper panel), anti-14-3-3ζ antibody (middle panel) or anti-phospho Ser58 14-3-3ζ antibody (lower panel). (C) Serum-starved Jurkat cells were treated with 2 μM FTY720 for 4 h prior to staining with TMRE and NucView™. Forward- versus side-scatter plots (FS versus SS) show the viable cell populations for FTY720 and EtOH (vehicle) treated cells which are analysed in the lower histograms for caspase activity (NucView™) versus ΔΨM (TMRE). (D and E) Jurkat cell lines expressing either wild type or S58A 14-3-3ζ-Myc by lentiviral transduction were serum-starved for 2 h and treated with either 0.1% ethanol vehicle alone (EtOH), 2 μM dimethyl-sphingosine (DMS), or 2 μM FTY720. Cells were analysed by TMRE staining at 4 h (D) or at the time points indicated (E). (D) Representative analyses of TMRE staining with forward- versus side-scatter plots inset to show the similarity in cell populations. (E) Graphical representation of TMRE analysis over time with open symbols representing vehicle (0.1% EtOH) treated cells and closed symbols representing FTY720 treated cells. […]
FIG. 11. […] Effect of TMAs on Jurkat cells after 16 hours incubation assessed by ΔΨM (TMRE) and caspase 3 activity (NucView™) analysis. […] Forward-side-scatter histograms showing cell viability are inset and caspase 3 activity as assessed by NucView™ analysis of viable cells shown. E. Examples of TMA-derivatives of FTY720 that will be analysed for effects on 14-3-3 dimer stability and apoptosis.
Having confirmed appropriate expression and behaviour of Myc-tagged wild type and S58A 14-3-3ζ in the Jurkat lines, these cells were utilised in functional studies to determine the effect of S58A 14-3-3ζ expression on cell survival in response to sphingosine analogues. […] Intriguingly, Jurkat cells expressing S58A 14-3-3ζ-Myc consistently underwent commitment to apoptosis (as detected by the loss of TMRE staining) more slowly than those expressing wild type 14-3-3ζ-Myc (FIG. 8D).

Compound	apoptosis of Jurkat cells (ΔΨM by TMRE, caspase 3 by NucView)
CCCCCCCCCCCCCCCC[N+](C)(C)C.[Br-] [CTAB]	apoptosis induced by CTAB

Target: T2, PKCδCat-HA (Homo sapiens, UniProt Q05655)
T2 construct: recreated exactly the N-terminus of the caspase-3 cleaved protein; additional initiator methionine (N); expressed in transfected cells; host or cells: COS cells, anti-HA immunoprecipitate
Assay: PKC kinase activity assay with Ser25 peptide substrate
Assay type: biochemical
Details: 10 μM GF109203X
Method: FIG. 5 is an image depicting that DMS is required for phosphorylation of 14-3-3ζ by PKCδCat but not for activation of the kinase. COS cells were transfected with either an empty expression construct (Mock) or one encoding a HA-tagged truncated form of PKCδ corresponding to the caspase-3 cleaved protein (PKCδCat-HA). 20 hours after transfection the cells were lysed and PKCδCat-HA was immunoprecipitated using an anti-HA antibody. (A) PKC assays were carried out on the immunoprecipitates from mock (open bars) and PKCδCat-HA (shaded bars) expressing cells using Ser25 peptide as substrate with [^32P]γ-ATP in the presence or absence of 100 μM DMS (delivered in 0.1% ethanol) or 10 μM of GF109203X (GFX), the PKC inhibitor. The values represent means±S.E. of triplicate determinations. (B) PKCδCat-HA immunoprecipitates were incubated with recombinant 14-3-3ζ and [^32P]γ-ATP in the presence or absence of DMS or GF109203X (GFX). Phosphorylated 14-3-3 was detected by autoradiography after separation of SDS-PAGE (upper panel). The gel was also coomassie stained to show equal loading of 14-3-3 protein (lower panel). […]
Equal amounts of PKCδCat-HA immunoprecipitate were used to assay for PKC kinase activity, or to phosphorylate recombinant 14-3-3. […] Following incubation, reactions were separated on 12.5% SDS-PAGE, coomassie stained and 14-3-3 phosphorylation analysed by autoradiography.

T2 sequence (Q05655 330-676 limits assumed): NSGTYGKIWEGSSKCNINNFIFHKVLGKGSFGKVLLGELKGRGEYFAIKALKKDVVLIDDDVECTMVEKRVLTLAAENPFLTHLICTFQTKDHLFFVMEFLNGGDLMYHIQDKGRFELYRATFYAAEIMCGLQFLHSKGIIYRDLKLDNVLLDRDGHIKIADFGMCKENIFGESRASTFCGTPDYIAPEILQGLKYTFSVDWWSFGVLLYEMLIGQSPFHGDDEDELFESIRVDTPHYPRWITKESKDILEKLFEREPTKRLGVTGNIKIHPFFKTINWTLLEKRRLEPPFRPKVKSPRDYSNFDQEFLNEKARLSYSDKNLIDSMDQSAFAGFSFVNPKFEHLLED

Compound	effect on PKCδCat kinase activity
CN(C)CCCn1cc(C2=C(c3c[nH]c4ccccc34)C(=O)NC2=O)c2ccccc21 [GF109203X]	completely inhibited
